One experiment concerns the target rhSYK (Homo sapiens, UniProt P43405). Briefly: biochemical.
Conditions: not given
Compound `Cc1cc(Nc2nccc(C(F)(F)F)n2)cc(-c2cnc(C(C)(O)c3ccc(C(N)=O)cc3)s2)c1` (single isomer, unassigned) [Example 117-20] returned an IC50 of less than 100 nM. The same measure, in the same setting: under `Cc1cc(Nc2nccc(C(F)(F)F)n2)cc(-c2cnc(C3(O)CCC(C(N)=O)C3)s2)c1` (single isomer, unassigned) [Example 119-2] stands less than 100 nM; under `Cc1cc(Nc2nccc(C)n2)cc(-c2cnc(C3(O)CCC(C(N)=O)C(C)C3)s2)c1` (single isomer, unassigned) [Example 119-5], less than 100 nM; under `Cc1cc(Nc2nccc(C(F)(F)F)n2)cc(-c2cnc(C3(O)CCC(C(N)=O)C(C)C3)s2)c1` (single isomer, unassigned) [Example 119-111], less than 100 nM. Same read-out and setting: under `Cc1cc(Nc2ncc(F)c(C)n2)cc(-c2cnc(C3(O)CCC4(CC3)OCCO4)s2)c1` [Example 116B-1] stands less than 100 nM; under `Cc1cc(Nc2ncc(Cl)c(C)n2)cc(-c2cnc(C3(O)CCC4(CC3)OCCO4)s2)c1` [Example 116B-2], less than 100 nM.

As for `Cc1cc(Nc2nccc(C(F)(F)F)n2)cc(-c2cnc(C3(O)CC(C(N)=O)C3)s2)c1` (centres unmarked) [Example 117-1], the IC50 is less than 100 nM. With `Cc1cc(Nc2nccc(C)n2)cc(-c2cnc(C3(O)CCC(C(N)=O)C4CCCCC43)s2)c1` (centres unmarked) [Example 117-2], the IC50 was less than 100 nM. The same measure, in the same setting: the result for `Cc1cc(Nc2nccc(C(F)(F)F)n2)cc(-c2cnc([C@H]3CC[C@@H](C(N)=O)CC3)s2)c1` [Example 117-4] reads less than 100 nM; that for `Cc1cc(Nc2nccc(C(F)(F)F)n2)cc(-c2cnc([C@H]3CC[C@H](C(N)=O)CC3)s2)c1` [Example 117-5], less than 100 nM; that for `Cc1cc(Nc2nccc(C(F)(F)F)n2)cc(-c2cnc(C3(O)CCN(c4ncccc4C(N)=O)CC3)s2)c1` [Example 117-6], less than 100 nM. Still for that read-out and setting: the result for `Cc1cc(Nc2nccc(C(F)(F)F)n2)cc(-c2cnc(C3(O)CCN(CCCC(N)=O)CC3)s2)c1` [Example 117-7] reads less than 100 nM; that for `Cc1cc(Nc2nccc(C(F)(F)F)n2)cc(-c2cnc(C3(O)CCC(CC(N)=O)CC3)s2)c1` (centres unmarked) [Example 117-8], less than 100 nM. `Cc1cc(Nc2nccc(C(F)(F)F)n2)cc(-c2cnc([C@]3(O)CC[C@@H](CCC(N)=O)CC3)s2)c1` [Example 117-11] returned an IC50 of less than 100 nM.

Compound `Cc1cc(Nc2nccc(C(F)(F)F)n2)cc(-c2cnc([C@]3(O)CC[C@H](CCC(N)=O)CC3)s2)c1` [Example 117-12] displayed an IC50 of less than 100 nM. In turn, `Cc1cc(Nc2nccc(C(C)C)n2)cc(-c2cnc(C3(O)CCCN(C(=O)CC(N)=O)CC3)s2)c1` (centres unmarked) [Example 117-13] had an IC50 of less than 100 nM.

As to `Cc1cc(Nc2nccc(OCCO)n2)cc(-c2cnc(CCC(N)=O)s2)c1` [Example 117-14], the IC50 was less than 100 nM.

In turn, `CCC(CO)NC(=O)CCc1ncc(-c2cc(C)cc(Nc3nccc(C(F)(F)F)n3)c2)s1` (centres unmarked) [Example 117-15] yielded an IC50 of less than 100 nM. `CCOC(=O)CNC(=O)CCc1ncc(-c2cc(C)cc(Nc3nccc(C(F)(F)F)n3)c2)s1` [Example 117-16] displayed an IC50 of less than 100 nM. Same read-out and setting: under `COC(=O)C(C)NC(=O)CCc1ncc(-c2cc(C)cc(Nc3nccc(C(F)(F)F)n3)c2)s1` (centres unmarked) [Example 117-17] stands less than 100 nM; under `COC(=O)CCNC(=O)CCc1ncc(-c2cc(C)cc(Nc3nccc(C(F)(F)F)n3)c2)s1` [Example 117-18], less than 100 nM. On the same count and under the same terms, the result for `COC(=O)C(CC(C)C)NC(=O)CCc1ncc(-c2cc(C)cc(Nc3nccc(C(F)(F)F)n3)c2)s1` (centres unmarked) [Example 117-19] reads 100 to 1000 nM; that for `Cc1cc(Nc2nccc(C(F)(F)F)n2)cc(-c2cnc([C@@]3(O)CC[C@H](C(N)=O)C(C)(C)C3)s2)c1Br` [Example 117-22], less than 100 nM; that for `Cc1cc(Nc2nccc(C)n2)cc(-c2cnc(C3(O)CCC(C(N)=O)C(C)(C)C3)s2)c1` (centres unmarked) [Example 119-7], less than 100 nM. Regarding `Cc1cc(Nc2nccc(C(C)C)n2)cc(-c2cnc([C@]3(O)CC[C@@H](C(N)=O)CC3)s2)c1` [Example 119-8], the IC50 is less than 100 nM. Same read-out and setting: under `Cc1cc(Nc2nccc(C(C)(C)C)n2)cc(-c2cnc(C3(O)CCC(C(N)=O)CC3)s2)c1` (centres unmarked) [Example 119-9] stands less than 100 nM; under `Cc1cc(Nc2nccc(C(C)C)n2)cc(-c2cnc(C3(O)CCC(C(N)=O)C(C)C3)s2)c1` (centres unmarked) [Example 119-10], less than 100 nM; under `Cc1cc(Nc2nccc(OCCO)n2)cc(-c2cnc(C3(O)CCC(C(N)=O)CC3)s2)c1` (centres unmarked) [Example 119-14], less than 100 nM. As for `CNC(=O)C1CCC(O)(c2ncc(-c3cc(C)cc(Nc4nccc(C(F)(F)F)n4)c3)s2)CC1` (centres unmarked) [Example 119-15], the IC50 is less than 100 nM.

In turn, `Cc1cc(Nc2nccc(C(F)(F)F)n2)cc(-c2cnc([C@]3(O)CC[C@@H](C(=O)N(C)C)CC3)s2)c1` [Example 119-17] gave an IC50 of less than 100 nM. Same read-out and setting: the result for `Cc1cc(Nc2nccc(C(F)(F)F)n2)cc(-c2cnc(C3(O)CCC(C(=O)NCC#N)CC3)s2)c1` (centres unmarked) [Example 119-18] reads less than 100 nM; that for `Cc1cc(Nc2nccc(C(F)(F)F)n2)cc(-c2cnc([C@]3(O)CC[C@@H](C(=O)N4CCC4)CC3)s2)c1` [Example 119-19], less than 100 nM. The same measure, in the same setting: the result for `Cc1cc(Nc2nccc(C(F)(F)F)n2)cc(-c2cnc([C@]3(O)CC[C@@H](C(=O)NC(C)C)CC3)s2)c1` [Example 119-20] reads less than 100 nM; that for `CCN(C)C(=O)[C@H]1CC[C@](O)(c2ncc(-c3cc(C)cc(Nc4nccc(C(F)(F)F)n4)c3)s2)CC1` [Example 119-21], less than 100 nM. The same measure, in the same setting: the result for `Cc1cc(Nc2nccc(C(F)(F)F)n2)cc(-c2cnc([C@]3(O)CC[C@@H](C(=O)NCCO)CC3)s2)c1` [Example 119-22] reads less than 100 nM; that for `Cc1cc(Nc2nccc(C(F)(F)F)n2)cc(-c2cnc([C@]3(O)CC[C@@H](C(=O)NCC4CC4)CC3)s2)c1` [Example 119-23], less than 100 nM; that for `Cc1cc(Nc2nccc(C(F)(F)F)n2)cc(-c2cnc([C@]3(O)CC[C@@H](C(=O)N4CCCC4)CC3)s2)c1` [Example 119-24], less than 100 nM. Compound `COCCNC(=O)[C@H]1CC[C@](O)(c2ncc(-c3cc(C)cc(Nc4nccc(C(F)(F)F)n4)c3)s2)CC1` [Example 119-25] yielded an IC50 of less than 100 nM. Same read-out and setting: under `Cc1cc(Nc2nccc(C(F)(F)F)n2)cc(-c2cnc([C@]3(O)CC[C@@H](C(=O)NCC(=O)O)CC3)s2)c1` [Example 119-26] stands less than 100 nM; under `Cc1cc(Nc2nccc(C(F)(F)F)n2)cc(-c2cnc([C@]3(O)CC[C@@H](C(=O)Nc4ncc[nH]4)CC3)s2)c1` [Example 119-27], less than 100 nM. The same measure, in the same setting: the result for `Cc1cc(Nc2nccc(C(F)(F)F)n2)cc(-c2cnc(C3(O)CCC(C(=O)N(C)CCC#N)CC3)s2)c1` (centres unmarked) [Example 119-28] reads less than 100 nM. The same measure, in the same setting: the result for `Cc1cc(Nc2nccc(C(F)(F)F)n2)cc(-c2cnc([C@]3(O)CC[C@@H](C(=O)N4CCOCC4)CC3)s2)c1` [Example 119-29] reads less than 100 nM; that for `Cc1cc(Nc2nccc(C(F)(F)F)n2)cc(-c2cnc(C3(O)CCC(C(=O)NCCC(N)=O)CC3)s2)c1` (centres unmarked) [Example 119-30], less than 100 nM.

The next experiment deals with recombinant human SYK (GST-hSYK fusion protein) (Homo sapiens, UniProt P43405).
Test: not given
As to conditions: read-out: rhSYK Activity; Table 113A.
As to `Cc1cc(Nc2nccc(C)n2)cc(-c2cnc(C3(O)CCC(C(=O)O)CC3C)s2)c1` (centres unmarked) [Example 113A-81], the IC50 was less than 100 nM. On the same count and under the same terms, under `Cc1cc(Nc2nccc(C)n2)cc(-c2cnc(C3(O)CCC(C(=O)O)CC3C)s2)c1` (centres unmarked) [Example 113A-82] stands less than 100 nM; under `Cc1cc(Nc2nccc(C)n2)cc(-c2cnc(C3(O)CCC(C(=O)O)CC3C)s2)c1` (centres unmarked) [Example 113A-83], less than 100 nM. On the same count and under the same terms, the result for `Cc1cc(Nc2nccc(C)n2)cc(-c2cnc(C3(O)CCC(C(=O)O)CC3C)s2)c1` (centres unmarked) [Example 113A-84] reads less than 100 nM; that for `Cc1cc(Nc2nccc(C)n2)cc(-c2cnc(C3(O)CCC(C(=O)O)CC3C)s2)c1` (centres unmarked) [Example 113A-85], less than 100 nM. The same measure, in the same setting: under `Cc1cc(Nc2nccc(C)n2)cc(-c2cnc(C3(O)CCC(C(=O)O)CC3C)s2)c1` (centres unmarked) [Example 113A-86] stands less than 100 nM.

On to `Cc1cc(Nc2nccc(C)n2)cc(-c2cnc(C3(O)CCC(C(=O)O)CC3O)s2)c1` (centres unmarked) [Example 113A-91], for which the IC50 is less than 100 nM.

Still in this experiment, the particulars now being: read-out: rhSYK Activity; Table 113B.
Consider `Cc1cc(Nc2nccc(C)n2)cc(-c2cnc(C3(O)CC(C)C(C(=O)O)CC3C)s2)c1` (centres unmarked) [Example 113B-1], for which the IC50 is less than 100 nM. Still for that read-out and setting: the result for `Cc1cc(Nc2nccc(C)n2)cc(-c2cnc(C3(O)CC(C)C(C(=O)O)CC3C)s2)c1` (centres unmarked) [Example 113B-2] reads less than 100 nM; that for `Cc1cc(Nc2nccc(C)n2)cc(-c2cnc(C3(O)CC(C)C(C(=O)O)CC3C)s2)c1` (centres unmarked) [Example 113B-4], less than 100 nM. As to `Cc1cc(Nc2nccc(C)n2)cc(-c2cnc(C3(O)CC(C)C(C(=O)O)CC3C)s2)c1` (centres unmarked) [Example 113B-5], the IC50 was less than 100 nM. The same measure, in the same setting: under `Cc1cc(Nc2nccc(C)n2)cc(-c2cnc(C3(O)CC(C)C(C(=O)O)CC3C)s2)c1` (centres unmarked) [Example 113B-6] stands less than 100 nM. Regarding `Cc1cc(Nc2nccc(C(F)(F)F)n2)cc(-c2cnc(C3(O)CC(C)C(C(=O)O)CC3C)s2)c1` (centres unmarked) [Example 113B-13], the IC50 is less than 100 nM.

`Cc1cc(Nc2nccc(C(F)(F)F)n2)cc(-c2cnc(C3(O)CC(C)C(C(=O)O)CC3C)s2)c1` (centres unmarked) [Example 113B-14]: the IC50 is less than 100 nM. On the same count and under the same terms, the result for `Cc1cc(Nc2nccc(C(F)(F)F)n2)cc(-c2cnc(C3(O)CC(C)C(C(=O)O)CC3C)s2)c1` (centres unmarked) [Example 113B-15] reads less than 100 nM; that for `Cc1cc(Nc2nccc(C(F)(F)F)n2)cc(-c2cnc(C3(O)CC(C)C(C(=O)O)CC3C)s2)c1` (centres unmarked) [Example 113B-16], less than 100 nM; that for `Cc1cc(Nc2nccc(C)n2)cc(-c2cnc(C3(O)CC(C)C(C(=O)O)C(C)C3)s2)c1` (centres unmarked) [Example 113B-22], less than 100 nM. Same read-out and setting: the result for `Cc1cc(Nc2nccc(C(F)(F)F)n2)cc(-c2cnc(C3(O)CC(C)C(C(=O)O)C(C)C3)s2)c1` (centres unmarked) [Example 113B-25] reads less than 100 nM.

Still in this experiment, the particulars now being: read-out: rhSYK Activity; Table 113D, upper part.
For `Cc1cc(Nc2nccc(C(F)(F)F)n2)cc(-c2cnc(C(C)(O)c3ccc(C(=O)O)cn3)s2)c1` (centres unmarked) [Example 113D-6], the IC50 is less than 100 nM.

The record behind these values is patent publication US8551984B2, “Aminopyrimidines as SYK inhibitors” (Merck Sharp & Dohme Corp., priority 2009, dated 2013).
